From patent US20060069132A1, “Azolecarboxamide herbicides” (priority 2004, published 2006)

Columns and labels:
[1] = tested on: Surinam grass; experiment: Test C pre-/postemergence herbicide test; format: in vivo, Urochloa decumbens; settings: preemergence; for Plant response rating (0 = no effect, 100 = complete control), Surinam Grass: 125 g ai/ha
Method in brief: (§1)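 Preemergence: seeds planted and treated with compound in non-phytotoxic solvent with surfactant; postemergence: plants at 2 to 18 cm (1- to 4-leaf stage) sprayed likewise. Kept in greenhouse 12 to 14 days, then visually rated against controls, 0 (no effect) to 100 (complete control).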

[2] = tested on: corn; experiment: Test C pre-/postemergence herbicide test; format: in vivo, Zea mays; settings: preemergence; for Plant response rating (0 = no effect, 100 = complete control), Corn: 125 g ai/ha
Method in brief: as §1

[3] = tested on: woolly cupgrass; experiment: Test C pre-/postemergence herbicide test; format: in vivo, Eriochloa villosa; settings: preemergence; for Plant response rating (0 = no effect, 100 = complete control), Cupgrass, Woolly: 125 g ai/ha
Method in brief: as §1

[4] = tested on: johnsongrass; experiment: Test C pre-/postemergence herbicide test; format: in vivo, Sorghum halepense; settings: preemergence; for Plant response rating (0 = no effect, 100 = complete control), Johnsongrass: 125 g ai/ha
Method in brief: as §1

[5] = tested on: eastern black nightshade; experiment: Test C pre-/postemergence herbicide test; format: in vivo, Solanum ptycanthum; settings: preemergence; for Plant response rating (0 = no effect, 100 = complete control), Nightshade: 125 g ai/ha
Method in brief: as §1

[6] = tested on: common (oilseed) sunflower; experiment: Test C pre-/postemergence herbicide test; format: in vivo, Helianthus annuus; settings: preemergence; for Plant response rating (0 = no effect, 100 = complete control), Sunflower: 125 g ai/ha
Method in brief: as §1

[7] = tested on: velvetleaf; experiment: Test C pre-/postemergence herbicide test; format: in vivo, Abutilon theophrasti; settings: preemergence; for Plant response rating (0 = no effect, 100 = complete control), Velvetleaf: 125 g ai/ha
Method in brief: as §1

[8] = tested on: smallflower umbrella sedge; experiment: Test C flooded paddy test; format: in vivo, Cyperus difformis; settings: for Plant response rating, Sedge, Umbrella: 500 g ai/ha, visual rating after 12 to 14 days
[9] = 500 g ai/ha, scale 0 to 100 (0 no effect, 100 complete control), visual, 12 to 14 days
[10] = 125 g ai/ha, scale 0 to 100 (0 no effect, 100 complete control)
[11] = 250 g ai/ha, scale of 0 to 100, 0 is no effect, 100 is complete control
[12] = scale 0 to 100 (0 no effect, 100 complete control)

Compound	Plant response rating, Surinam Grass ([1]; 62 g ai/ha, scale 0 to 100)	Plant response rating (0 = no effect, 100 = complete control), Surinam Grass [1]	Plant response rating, Surinam Grass ([1]; 250 g ai/ha, scale 0-100)	Plant response rating, Surinam Grass [1, 9]	Plant response rating, Corn ([2]; 62 g ai/ha, scale 0 to 100)	Plant response rating (0 = no effect, 100 = complete control), Corn [2]	Plant response rating, Corn ([2]; 250 g ai/ha, scale 0-100)	Plant response rating, Corn [2, 9]	Plant response rating, Cupgrass, Woolly ([3]; 62 g ai/ha, scale 0 to 100)	Plant response rating (0 = no effect, 100 = complete control), Cupgrass, Woolly [3]	Plant response rating, Cupgrass, Woolly ([3]; 250 g ai/ha, scale 0-100)	Plant response rating, Cupgrass, Woolly [3, 9]	Plant response rating, Johnsongrass ([4]; 62 g ai/ha, scale 0 to 100)	Plant response rating (0 = no effect, 100 = complete control), Johnsongrass [4]	Plant response rating, Johnsongrass ([4]; 250 g ai/ha, scale 0-100)	Plant response rating, Johnsongrass [4, 9]	Plant response rating, Nightshade ([5]; 62 g ai/ha, scale 0 to 100)	Plant response rating (0 = no effect, 100 = complete control), Nightshade [5]	Plant response rating, Nightshade ([5]; 250 g ai/ha, scale 0-100)	Plant response rating, Nightshade [5, 9]	further results
CCc1nn(C(C)(C)C)nc1C(=O)Nc1cccc(C(=S)N(C)C)c1 [Compound 395]	95	100	100	100	0	45	85	90	85	95	100	100	95	100	100	100	100	100	100	100	Plant response rating, Sunflower ([6]; 62 g ai/ha, scale 0 to 100): 0; Plant response rating (0 = no effect, 100 = complete control), Sunflower [6]: 0; Plant response rating, Sunflower ([6]; 250 g ai/ha, scale 0-100): 50; Plant response rating, Sunflower [6, 9]: 55; Plant response rating, Velvetleaf ([7]; 62 g ai/ha, scale 0 to 100): 95; Plant response rating (0 = no effect, 100 = complete control), Velvetleaf [7]: 100; Plant response rating, Velvetleaf ([7]; 250 g ai/ha, scale 0-100): 100; Plant response rating, Velvetleaf [7, 9]: 100; Sedge, Umbrella plant response rating ([8]; 62 g ai/ha, scale 0 to 100): 70; Sedge, Umbrella plant response rating [8, 10]: 80; Sedge, Umbrella plant response rating [8, 11]: 85; Plant response rating, Sedge, Umbrella [8, 12]: 85
CCc1nn(C(C)(C)C)nc1C(=S)Nc1cccc(C(=S)N(C)C)c1 [Compound 396]	65	95	100	100	0	30	60	80	60	90	100	100	95	100	100	100	95	100	100	100	Plant response rating, Sunflower ([6]; 62 g ai/ha, scale 0 to 100): 0; Plant response rating (0 = no effect, 100 = complete control), Sunflower [6]: 0; Plant response rating, Sunflower ([6]; 250 g ai/ha, scale 0-100): 0; Plant response rating, Sunflower [6, 9]: 15; Plant response rating, Velvetleaf ([7]; 62 g ai/ha, scale 0 to 100): 0; Plant response rating (0 = no effect, 100 = complete control), Velvetleaf [7]: 45; Plant response rating, Velvetleaf ([7]; 250 g ai/ha, scale 0-100): 100; Plant response rating, Velvetleaf [7, 9]: 100; Sedge, Umbrella plant response rating ([8]; 62 g ai/ha, scale 0 to 100): 70; Sedge, Umbrella plant response rating [8, 10]: 75; Sedge, Umbrella plant response rating [8, 11]: 85; Plant response rating, Sedge, Umbrella [8, 12]: 90
